Reference: patent US20250000932A1, “DIAGNOSIS AND TREATMENT OF VA[…]” (University Of Maryland, Baltimore, priority 2023, published 2025)

System: patients with catecholamine-resistant vasodilatory shock
Assay: ATHOS-3: safety (adverse events, serious adverse events)
Format: in vivo, human
Settings: patients with elevated renin concentrations at baseline
Experimental: The use of Angiotensin II for the Treatment of High-Output Shock 3 (ATHOS-3) study has been described by Khanna et al. and Chawla et al. In brief, adults with vasodilatory shock despite volume resuscitation with 2:25 mL/kg and high-dose vasopressors were randomly assigned 1:1 to receive synthetic human angiotensin II (La Jolla Pharmaceutical Company™) or saline placebo plus standard vasopressors. Randomization was stratified according to MAP at screening and Acute Physiology and Chronic Health Evaluation II (APACHE II) score.
The study drug infusion started at 20 ng/kg/min and was adjusted during the first 3 hours to increase the MAP to 2:75 mm Hg while keeping other vasopressors constant. Thereafter, the study drug and other vasopressors were adjusted at the discretion of the treating ICU team to maintain a MAP between 65 and 75 mm Hg. At 48 hours, the infusion was discontinued according to a protocol-specified tapering process. However, continuation was allowed for up to 7 days at the discretion of the ICU team.
Safety was evaluated by assessment of treatment-emergent adverse events, serious adverse events, and adverse event-related drug discontinuations.

CC[C@H](C)[C@H](NC(=O)[C@H](Cc1ccc(O)cc1)NC(=O)[C@@H](NC(=O)[C@H](CCCNC(=N)N)NC(=O)[C@@H](N)CC(=O)O)C(C)C)C(=O)N[C@@H](Cc1cnc[nH]1)C(=O)N1CCC[C@H]1C(=O)N[C@@H](Cc1ccccc1)C(=O)O [Angiotensin II, angiotensin II]
adverse events or serious adverse events vs placebo: no significant difference
